Reference: patent publication US20160106100A1, “MICROBICIDAL COMPOSITION COMPRISING AN ISOTHIAZOLONE AND AN AMINE OXIDE” (priority 2013, published 2016)

Legend:
Format in all cases: cell-based
[1] = test system: Candida albicans (ATCC 10231); assay: MIC and synergy index of MIT + N,N-Dimethyldodecan-1-amine oxide in Muller Hinton Broth; settings: for MHK: alone, 72 hours at 25° C.; for Synergistic Index / Total: single biocide alone
Procedure: Furthermore, the synergism of a combination of 2-Methyl-isothiazolinone (MIT) with N,N-Dimethyldodecan-1-amine oxide was tested using Candida albicans (ATCC 10231). For the purpose of the test, mixtures containing different concentrations of MIT and N,N-Dimethyldodecan-1-amine oxide were prepared and tested for their action on Candida albicans. The active compound mixtures in the corresponding concentrations were introduced into selective nutrient media (Muller Hinton Broth). The cell density in the broth was in each case 1.0-10^6 spores per ml. The incubation time is 72 hours at 25° C. This was followed by visual testing for growth of Candida albicans. In this way the minimum inhibitory concentrations (MICs) of the two active compounds were determined, individually and in combination. The synergism that occurred was presented numerically by calculation of the synergy index (SI).

[2] = test system: Aspergillus niger (DSM 12623); assay: MIC and synergy index of MIT + N,N-Dimethyldodecan-1-amine oxide in Sabouraud glucose agar; settings: for Synergy Index (Qa/QA + Qb/QB): sole biocide
Procedure: The synergism of a combination of 2-Methyl-isothiazolinone (MIT) with N,N-Dimethyldodecan-l-amine oxide was tested. Test organisms used was the mould Aspergillus niger (DSM 12623). For the purpose of the test, mixtures containing different concentrations of MIT and N,N-Dimethyldodecan-1-amine oxide were prepared and tested for their action on Aspergillus niger. The active compound mixtures in the corresponding concentrations were introduced into selective nutrient media (Sabouraud glucose agar for Aspergillus niger and the test organisms were likewise incorporated into the agar. The cell density in the agar was in each case 3.7·10^6 spores per ml for Aspergillus niger. The incubation time is 72 hours at 25° C. This was followed by visual testing for growth of Aspergillus niger. The growth was apparent through the formation of colonies or mycelia on the surface of the agar. In this way the minimum inhibitory concentrations (MICs) of the two active compounds were determined, individually and in combination. The MIC is the concentration at which there is no formation of colonies or mycelia on the surface of the agar ( Aspergillus niger).
The synergism that occurred was presented numerically by calculation of the synergy index (SI). This calculation was made using the common method of F. C. Kull et al., Applied Microbiology, vol. 9 (1961), p. 538. SI is calculated there in accordance with the following formula:
Synergy index SI=Qa/QA+Qb/QB
If the synergy index has a value of more than 1, this means that there is an antagonism. If the synergy index adopts a value of 1, this means that the action of the two biocides is additive. If the synergy index takes on a value of below 1, this means that there is synergism of the two biocides.
Calculation of the synergy index of N,N-Dimethyldodecan-1-arnine oxide+MIT in respect of Aspergillus niger for an incubation time of 72 hours at 25° C.

Aspergillus niger = assay: MIC and synergy index of ternary mixture Benzalkoniumchloride, N,N-Dimethyldodecan-1-amine oxide and MIT; settings: used alone
Procedure: In a further Experiment the synergy index of a ternary mixture of Benzalkoniumchloride, N,N-Dimethyldodecan-1-amine oxide and MIT was determined in respect of Aspergillus niger for an incubation time of 72 hours at 25 ° C.
The synergy of an active substance mixture that contains Benzalkoniumchloride in addition to N,N-Dimethyldodecan-1-amine oxide and MIT, against the microorganism Aspergillus niger is shown as in Table 4.

## Cn1sccc1=O [MIT, 2-methylisothiazolin-3-one]
[1]
  MHK: 125 ppm
  Synergistic Index: 1.00
  Total: 125 ppm
[2]; as sole biocide, 72 hours at 25° C.
  MIC: 1000 (MIC) ppm
[2]
  Synergy Index (Qa/QA + Qb/QB): 1.00

## Benzalkoniumchloride [BAC]
Aspergillus niger
  Synergistic Index: 1.00
Aspergillus niger; 72 hours at 25 ° C.
  MHK: 80 ppm

## CCCCCCCCCCCC[N+](C)(C)[O-] [N,N-Dimethyldodecan-1-amine oxide]
[1]
  MHK: 50 ppm
  Synergistic Index: 1.00
  Total: 50 ppm
[2]; Aspergillus niger, DSM12623, 72 h
  MIC: 231 µg/mL
[2]
  Synergy Index (Qa/QA + Qb/QB): 1.00
